Here are results for 25 compounds from patent US20230365592A1 (Agios Pharmaceuticals, Inc., priority 2022, published 2023).

Usually AC50 stands for the midpoint of the concentration-response curve, whichever way the signal moves.

The assay has as its target T1, human PAH with the R408W mutation (Homo sapiens, UniProt P00439, R408W).
T1 construct: expressed in transfected cells
T1 sequence (P00439 1-452 R408W): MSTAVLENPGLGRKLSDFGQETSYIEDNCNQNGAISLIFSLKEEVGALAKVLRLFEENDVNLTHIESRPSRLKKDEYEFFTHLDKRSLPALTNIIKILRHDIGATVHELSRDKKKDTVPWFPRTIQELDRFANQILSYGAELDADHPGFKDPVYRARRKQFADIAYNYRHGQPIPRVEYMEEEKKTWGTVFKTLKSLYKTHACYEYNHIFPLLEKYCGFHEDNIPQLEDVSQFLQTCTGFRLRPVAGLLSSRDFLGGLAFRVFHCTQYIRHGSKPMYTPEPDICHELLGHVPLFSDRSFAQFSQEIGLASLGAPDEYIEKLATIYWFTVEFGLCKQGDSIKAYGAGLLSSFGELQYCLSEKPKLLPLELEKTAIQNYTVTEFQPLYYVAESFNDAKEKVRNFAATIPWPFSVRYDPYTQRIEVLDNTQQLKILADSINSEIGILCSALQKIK
Kind of assay: Cell Based Phenylalanine Flux Assay.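 Note: after compound treatment, cells received sepiapterin plus isotope-labelled Phenylalanine for 4 hours, then labelled Tyrosine in the medium was quantified, 10-point 2-fold dilution series run in duplicate.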 The conditions noted are these: A375 cells expressing human R408W PAH; 24 hrs compound incubation; 13C-Tyrosine by LC-MS; average where tested multiple times; read-out: AC50.
As for `O=C(c1nnc(-c2ccn(C(F)F)n2)o1)N1CCc2[nH]cnc2[C@@H]1c1cc2c(F)cccn2n1` [Example 824, (R)-(5-(1-(difluoromethyl)-1H-pyrazol-3-yl)-1,3,4-oxadiazol-2-yl)(4-(4-fluoropyrazolo[1,5-a]pyridin-2-yl)-6,7-dihydro-1H-imidazo[4,5-c]pyridin-5(4H)-yl)methanone], the AC50 was over 5000 nM. Next, `O=C(c1nnc(-c2ccn(C(F)F)n2)o1)N1CCc2[nH]cnc2[C@H]1c1cc2c(F)cccn2n1` [Example 825, (S)-(5-(1-(difluoromethyl)-1H-pyrazol-3-yl)-1,3,4-oxadiazol-2-yl)(4-(4-fluoropyrazolo[1,5-a]pyridin-2-yl)-6,7-dihydro-1H-imidazo[4,5-c]pyridin-5(4H)-yl)methanone]: under 500 nM. Next, `Cn1cc(-c2nnc(C(=O)N3CCc4[nH]cnc4[C@H]3c3cc4c(C(F)(F)F)cccn4n3)o2)cn1` [Example 828, (S)-(5-(1-methyl-1H-pyrazol-4-yl)-1,3,4-oxadiazol-2-yl)(4-(4-(trifluoromethyl)pyrazolo[1,5-a]pyridin-2-yl)-6,7-dihydro-1H-imidazo[4,5-c]pyridin-5(4H)-yl)methanone]: under 500 nM; `Cn1cc(-c2nnc(C(=O)N3CCc4[nH]cnc4[C@@H]3c3cc4c(C(F)(F)F)cccn4n3)o2)cn1` [Example 829, (R)-(5-(1-methyl-1H-pyrazol-4-yl)-1,3,4-oxadiazol-2-yl)(4-(4-(trifluoromethyl)pyrazolo[1,5-a]pyridin-2-yl)-6,7-dihydro-1H-imidazo[4,5-c]pyridin-5(4H)-yl)methanone]: over 5000 nM.

As for `O=C(c1nnc(-c2ccncc2)o1)N1CCc2[nH]cnc2[C@H]1c1cc2c(F)cccn2n1` [Example 830, (S)-(4-(4-fluoropyrazolo[1,5-a]pyridin-2-yl)-6,7-dihydro-1H-imidazo[4,5-c]pyridin-5(4H)-yl)(5-(pyridin-4-yl)-1,3,4-oxadiazol-2-yl)methanone], the AC50 is under 500 nM. The figure for `O=C(c1nnc(-c2ccncc2)o1)N1CCc2[nH]cnc2[C@@H]1c1cc2c(F)cccn2n1` [Example 831, (R)-(4-(4-fluoropyrazolo[1,5-a]pyridin-2-yl)-6,7-dihydro-1H-imidazo[4,5-c]pyridin-5(4H)-yl)(5-(pyridin-4-yl)-1,3,4-oxadiazol-2-yl)methanone] is 1000 to 5000 nM; for `O=C(c1nnc(-c2cnn(C3CCC3)c2)o1)N1CCc2[nH]cnc2[C@H]1c1cc2c(F)cccn2n1` [Example 832, (S)-(5-(1-cyclobutyl-1H-pyrazol-4-yl)-1,3,4-oxadiazol-2-yl)(4-(4-fluoropyrazolo[1,5-a]pyridin-2-yl)-6,7-dihydro-1H-imidazo[4,5-c]pyridin-5(4H)-yl)methanone] it is under 500 nM; for `O=C(c1nnc(-c2cnn(S(=O)(=O)C3CC3)c2)o1)N1CCc2[nH]cnc2[C@H]1c1cc2c(F)cccn2n1` [Example 834, (S)-(5-(1-(cyclopropylsulfonyl)-1H-pyrazol-4-yl)-1,3,4-oxadiazol-2-yl)(4-(4-fluoropyrazolo[1,5-a]pyridin-2-yl)-6,7-dihydro-1H-imidazo[4,5-c]pyridin-5(4H)-yl)methanone] it is 500 to 1000 nM. Next, `O=C(c1nnc(-c2cnn(S(=O)(=O)C3CC3)c2)o1)N1CCc2[nH]cnc2[C@@H]1c1cc2c(F)cccn2n1` [Example 835, (R)-(5-(1-(cyclopropylsulfonyl)-1H-pyrazol-4-yl)-1,3,4-oxadiazol-2-yl)(4-(4-fluoropyrazolo[1,5-a]pyridin-2-yl)-6,7-dihydro-1H-imidazo[4,5-c]pyridin-5(4H)-yl)methanone]: over 5000 nM; `Cc1cccn2nc([C@@H]3c4nc[nH]c4CCN3C(=O)c3ncnn3C)cc12` [Example 838, (S)-(1-methyl-1H-1,2,4-triazol-5-yl)(4-(4-methylpyrazolo[1,5-a]pyridin-2-yl)-6,7-dihydro-1H-imidazo[4,5-c]pyridin-5(4H)-yl)methanone]: under 500 nM; `Cn1ncnc1C(=O)N1CCc2[nH]cnc2[C@H]1c1cc2c(F)cccn2n1` [Example 840, (S)-(4-(4-fluoropyrazolo[1,5-a]pyridin-2-yl)-6,7-dihydro-1H-imidazo[4,5-c]pyridin-5(4H)-yl)(1-methyl-1H-1,2,4-triazol-5-yl)methanone]: 500 to 1000 nM. Take `Cn1ncnc1C(=O)N1CCc2[nH]cnc2[C@@H]1c1cc2c(F)cccn2n1` [Example 841, (R)-(4-(4-fluoropyrazolo[1,5-a]pyridin-2-yl)-6,7-dihydro-1H-imidazo[4,5-c]pyridin-5(4H)-yl)(1-methyl-1H-1,2,4-triazol-5-yl)methanone]: the AC50 was in the range of 1000 to 5000 nM. As for `O=C(c1ccnn1C(F)(F)F)N1CCc2[nH]cnc2[C@H]1c1cc2c(F)cccn2n1` [Example 842, (S)-(4-(4-fluoropyrazolo[1,5-a]pyridin-2-yl)-6,7-dihydro-1H-imidazo[4,5-c]pyridin-5(4H)-yl)(1-(trifluoromethyl)-1H-pyrazol-5-yl)methanone], the AC50 is under 500 nM. Next, `O=C(c1ccnn1C(F)(F)F)N1CCc2[nH]cnc2[C@@H]1c1cc2c(F)cccn2n1` [Example 843, (R)-(4-(4-fluoropyrazolo[1,5-a]pyridin-2-yl)-6,7-dihydro-1H-imidazo[4,5-c]pyridin-5(4H)-yl)(1-(trifluoromethyl)-1H-pyrazol-5-yl)methanone]: 1000 to 5000 nM. On to `Cc1nn(C)cc1-c1nnc(C(=O)N2CCc3[nH]cnc3[C@H]2c2cc3c(C)cccn3n2)o1` [Example 844, (S)-(5-(1,3-dimethyl-1H-pyrazol-4-yl)-1,3,4-oxadiazol-2-yl)(4-(4-methylpyrazolo[1,5-a]pyridin-2-yl)-6,7-dihydro-1H-imidazo[4,5-c]pyridin-5(4H)-yl)methanone], for which the AC50 was under 500 nM. Next, `Cc1nn(C)cc1-c1nnc(C(=O)N2CCc3[nH]cnc3[C@@H]2c2cc3c(C)cccn3n2)o1` [Example 845, (R)-(5-(1,3-dimethyl-1H-pyrazol-4-yl)-1,3,4-oxadiazol-2-yl)(4-(4-methylpyrazolo[1,5-a]pyridin-2-yl)-6,7-dihydro-1H-imidazo[4,5-c]pyridin-5(4H)-yl)methanone]: over 5000 nM; `Cc1nn(C)cc1-c1nnc(C(=O)N2CCc3[nH]cnc3[C@H]2c2cc3c(F)cccn3n2)o1` [Example 846, (S)-(5-(1,3-dimethyl-1H-pyrazol-4-yl)-1,3,4-oxadiazol-2-yl)(4-(4-fluoropyrazolo[1,5-a]pyridin-2-yl)-6,7-dihydro-1H-imidazo[4,5-c]pyridin-5(4H)-yl)methanone]: under 500 nM; `Cc1nn(C)cc1-c1nnc(C(=O)N2CCc3[nH]cnc3[C@@H]2c2cc3c(F)cccn3n2)o1` [Example 847, (R)-(5-(1,3-dimethyl-1H-pyrazol-4-yl)-1,3,4-oxadiazol-2-yl)(4-(4-fluoropyrazolo[1,5-a]pyridin-2-yl)-6,7-dihydro-1H-imidazo[4,5-c]pyridin-5(4H)-yl)methanone]: over 5000 nM.

As for `Cc1cccn2nc([C@@H]3c4nc[nH]c4CCN3C(=O)c3nnc(-c4ccncc4)o3)cc12` [Example 850, (S)-(4-(4-methylpyrazolo[1,5-a]pyridin-2-yl)-6,7-dihydro-1H-imidazo[4,5-c]pyridin-5(4H)-yl)(5-(pyridin-4-yl)-1,3,4-oxadiazol-2-yl)methanone], the AC50 is under 500 nM.

Take `Cc1cccn2nc([C@H]3c4nc[nH]c4CCN3C(=O)c3nnc(-c4ccncc4)o3)cc12` [Example 851, (R)-(4-(4-methylpyrazolo[1,5-a]pyridin-2-yl)-6,7-dihydro-1H-imidazo[4,5-c]pyridin-5(4H)-yl)(5-(pyridin-4-yl)-1,3,4-oxadiazol-2-yl)methanone]: the half-maximal activity concentration (AC50) is over 5000 nM. For `Cc1cccn2nc([C@@H]3c4nc[nH]c4CCN3C(=O)c3nnc(-c4cnn(S(=O)(=O)C5CC5)c4)o3)cc12` [Example 852, (S)-(5-(1-(cyclopropylsulfonyl)-1H-pyrazol-4-yl)-1,3,4-oxadiazol-2-yl)(4-(4-methylpyrazolo[1,5-a]pyridin-2-yl)-6,7-dihydro-1H-imidazo[4,5-c]pyridin-5(4H)-yl)methanone], the AC50 lay in the range of 500 to 1000 nM. `Cc1cccn2nc([C@@H]3c4nc[nH]c4CCN3C(=O)c3nnc(-c4cc(C)n(C)n4)o3)cc12` [Example 854, (S)-(5-(1,5-dimethyl-1H-pyrazol-3-yl)-1,3,4-oxadiazol-2-yl)(4-(4-methylpyrazolo[1,5-a]pyridin-2-yl)-6,7-dihydro-1H-imidazo[4,5-c]pyridin-5(4H)-yl)methanone]: the AC50 is under 500 nM. The figure for `Cc1cccn2nc([C@H]3c4nc[nH]c4CCN3C(=O)c3nnc(-c4cc(C)n(C)n4)o3)cc12` [Example 855, (R)-(5-(1,5-dimethyl-1H-pyrazol-3-yl)-1,3,4-oxadiazol-2-yl)(4-(4-methylpyrazolo[1,5-a]pyridin-2-yl)-6,7-dihydro-1H-imidazo[4,5-c]pyridin-5(4H)-yl)methanone] is over 5000 nM; for `CC(C)n1nccc1C(=O)N1CCc2[nH]cnc2[C@H]1c1cc2ccccn2n1` [Example 856, (S)-(1-isopropyl-1H-pyrazol-5-yl)(4-(pyrazolo[1,5-a]pyridin-2-yl)-6,7-dihydro-1H-imidazo[4,5-c]pyridin-5(4H)-yl)methanone] it is under 500 nM; for `CC(C)n1nccc1C(=O)N1CCc2[nH]cnc2[C@H]1c1cc2c(F)cccn2n1` [Example 858, (S)-(4-(4-fluoropyrazolo[1,5-a]pyridin-2-yl)-6,7-dihydro-1H-imidazo[4,5-c]pyridin-5(4H)-yl)(1-isopropyl-1H-pyrazol-5-yl)methanone] it is under 500 nM.
